“And” between values parts separate entries of the source, which are not always exact repeats. Identical values can stand only once. Like-named read-outs stand apart in the source and are kept apart here.
Assays:
[1] = Cytotoxicity, cell viability assay in normal cells; assay type: cell-based, human; conditions: human, PBMC, fraction of 0 μM control, read-out: relative cell viability (Fig 6a), replicates
[2] = system: PBMC; experiment: Cytotoxicity, cell viability assay in normal cells; assay type: cell-based, human; conditions: Fig 5c
[3] = system: MOLM14 cells; experiment: Cell viability assay (CellTiter-Glo luminescence); assay type: cell-based; conditions: Homo sapiens
Description: (§1) 5000 cells as indicated were cultured in 96-well plate with 100 μl of media. […] After treatment, the cells were incubated with 100 μl buffer for 10 min at room temperature following the instructions of CellTiter-Glo kit (Promega, Madison, WI). Luminescence was detected using a multi-mode reader Cytation 5 (BioTek, Winooski, VT). […] Two independent experiments done in duplicates were performed.

[4] = Cytotoxicity, cell viability assay in normal cells; assay type: cell-based; conditions: human, fraction of 0 μM control; for viability at 0.000244141 μM: Con. 0.000244141 μM; for viability at 0.015625 μM: Con. 0.015625 μM; for viability at 0.0625 μM: Con. 0.0625 μM; for viability at 1 μM: Con. 1 μM
Text: Human peripheral blood mononuclear cells (PBMCs), normal T-cells and B-cells were provided by the University of Pennsylvania Human Immunology Core (HIC), and Patient-derived xenografts (PDXs) were obtained from Fox Chase Cancer Center (FCCC). These samples were from different unidentified and healthy donors with written, informed consent. All the procedures were approved by the Institutional Review Board (IRB) and conducted according to the declarations of Helsinki protocols.
as §1

[5] = system: K562 cells; experiment: Cell viability assay (CellTiter-Glo luminescence); assay type: cell-based, human; conditions: K562, 100nM, 72 hours
Description: as §1

[6] = target: T1, PI3Kγ (Homo sapiens, UniProt P48736); experiment: Competitive binding pull-down assay in SU-DHL-4 cell lysates, western blot; conditions: SU-DHL-4 lysates, 51048 together with parent Brusatol
T1 construct: endogenous in cells; host or cells: SU-DHL-4 cells (lysate)
Description: Thirty microgram of purified GST-tagged proteins were pre-cleared with Dynabeads M-280 Streptavidin (Invitrogen, Carlsbad, CA, USA). […] The complexes were harvested and washed with PBS. The collected beads were mixed with SDS loading buffer for further analysis.
Western blot analyses were performed as previously described. Briefly, total cell lysates were separated by SDS-PAGE gel and transferred to nitrocellulose membrane. The membranes were blocked with 5% non-fat milk, probed with specific antibodies, and visualized using the Odyssey scanner (LiCor Inc., Lincoln, NE).

[7] = system: LCL1 cells; experiment: Real-time PCR, mRNA expression; assay type: cell-based, human
Description: (§2) Real-time PCR experiments were performed as previously described. The experiments were performed in triplicate.

[8] = system: Raji cells; experiment: Real-time PCR, mRNA expression; assay type: cell-based, human
Description: as §2

[9] = system: LCL1 cells; experiment: Cell viability assay (CellTiter-Glo luminescence); assay type: cell-based, human; conditions: 72 h, duplicates
Description: After treatment, the cells were incubated with 100 μl buffer for 10 min at room temperature following the instructions of CellTiter-Glo kit (Promega, Madison, WI). Luminescence was detected using a multi-mode reader Cytation 5 (BioTek, Winooski, VT). […] Two independent experiments done in duplicates were performed.

[10] = system: LCL1 cells; experiment: RNA-Seq and Ingenuity Pathway Analysis (upstream regulator analysis); assay type: cell-based, human
Description: The cDNA library was prepared with the commercial Illumina library preparation kits (TruSeq Stranded RNA LT Ribo-Zero H/M/R Kit) according to the manufacturer’s protocols and sequenced with an Illumina HiSeq2000 instrument (Washington University Genome Sequencing Center). Quality check was performed on the raw RNA-Seq reads (FastQC, https://www.bioinformatics.babraham.ac.uk/projects/fastqc/), and the adapters were cut (Trim Galore, https://www.bioinformatics.babraham.ac.uk/projects/trim_galore/) and mapped with hg38 genome (HISAT2)[64]. Differentially expressed transcripts were defined with Cuffdiff tools[65] and visualized using R software (https://www.r-project.org/). Signaling pathway analysis was conducted with the Ingenuity Pathway Analysis program (QIAGEN Inc., https://www.qiagenbioinformatics.com/products/ingenuitypathway-analysis)[27].

[11] = B-cells, read-out: relative cell viability (Fig 6c), replicates
[12] = T-cells, read-out: relative cell viability (Fig 6b), replicates
[13] = Brusatol-treated LCL1 cells, RNA-Seq, IPA

T1 sequence (P48736 whole entry): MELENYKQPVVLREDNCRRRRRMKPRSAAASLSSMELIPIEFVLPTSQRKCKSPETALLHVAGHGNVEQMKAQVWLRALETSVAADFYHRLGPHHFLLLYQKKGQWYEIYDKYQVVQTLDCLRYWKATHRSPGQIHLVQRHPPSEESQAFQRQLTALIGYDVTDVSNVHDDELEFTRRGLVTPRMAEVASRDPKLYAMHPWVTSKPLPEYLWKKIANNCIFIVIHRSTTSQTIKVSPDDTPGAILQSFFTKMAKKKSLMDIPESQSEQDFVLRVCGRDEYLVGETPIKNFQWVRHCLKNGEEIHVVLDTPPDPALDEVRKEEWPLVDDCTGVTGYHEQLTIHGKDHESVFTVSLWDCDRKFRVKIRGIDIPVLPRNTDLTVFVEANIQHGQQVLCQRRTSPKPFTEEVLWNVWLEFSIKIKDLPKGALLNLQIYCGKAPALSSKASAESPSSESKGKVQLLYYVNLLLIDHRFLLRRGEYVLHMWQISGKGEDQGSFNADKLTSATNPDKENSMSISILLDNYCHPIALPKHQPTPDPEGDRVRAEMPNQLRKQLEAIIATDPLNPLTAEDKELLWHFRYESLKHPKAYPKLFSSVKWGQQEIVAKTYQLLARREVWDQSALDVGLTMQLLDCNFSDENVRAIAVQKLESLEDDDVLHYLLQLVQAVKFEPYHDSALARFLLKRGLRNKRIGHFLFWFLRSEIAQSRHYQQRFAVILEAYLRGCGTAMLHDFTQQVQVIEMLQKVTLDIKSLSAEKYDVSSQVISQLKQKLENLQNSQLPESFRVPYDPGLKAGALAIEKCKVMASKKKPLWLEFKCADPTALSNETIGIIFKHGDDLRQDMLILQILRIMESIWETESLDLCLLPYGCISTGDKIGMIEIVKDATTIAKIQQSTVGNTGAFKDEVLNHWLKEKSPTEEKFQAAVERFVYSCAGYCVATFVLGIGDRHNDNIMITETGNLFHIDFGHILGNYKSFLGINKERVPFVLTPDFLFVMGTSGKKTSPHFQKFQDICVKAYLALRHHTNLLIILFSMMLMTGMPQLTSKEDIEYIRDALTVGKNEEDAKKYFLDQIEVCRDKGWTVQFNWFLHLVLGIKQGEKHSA

## COC(=O)C12OCC34C(CC5C(C)=C(OC(=O)CNC(=O)OC(C)(C)C)C(=O)CC5(C)C3C(O)C1O)OC(=O)C(OC(=O)C=C(C)C)C24 (stereo not shown) [#15]
[1]; Con. 0.000244141 μM
  viability at 0.000244141 μM: 104%
[1]; Con. 0.00390625 μM
  viability at 0.00390625 μM: 91.7%
[1]; Con. 0.015625 μM
  viability at 0.015625 μM: 76.5%
[1]; Con. 0.0625 μM
  viability at 0.0625 μM: 74.9%
[1]; Con. 1 μM
  viability at 1 μM: 61.2%
[2]; Con. 0.01 μM
  Cell viability, raw luminescence reading: 24385 and 24514
[2]; Con. 0.039 μM
  Cell viability, raw luminescence reading: 25686 and 22234
[2]; Con. 0.156 μM
  Cell viability, raw luminescence reading: 6585 and 8242
[2]; Con. 0.625 μM
  Cell viability, raw luminescence reading: 7188 and 7989
[2]; Con. 10 μM
  Cell viability, raw luminescence reading: 9130 and 9273
[3]; MOLM-14, read-out: relative cell viability (Fig 6e), replicates, MOLM14, Con. 0.00244141 μM, fraction of 0 μM control
  viability at 0.00244141 µM: 71.1%
[3]; MOLM-14, read-out: relative cell viability (Fig 6e), replicates, MOLM14, Con. 0.0390625 μM, fraction of 0 μM control
  viability at 0.0390625 µM: 15%
[3]; MOLM-14, read-out: relative cell viability (Fig 6e), replicates, MOLM14, Con. 0.15625 μM, fraction of 0 μM control
  viability at 0.15625 µM: 5.59%
[3]; MOLM-14, read-out: relative cell viability (Fig 6e), replicates, MOLM14, Con. 0.625 μM, fraction of 0 μM control
  viability at 0.625 µM: 3.26%
[3]; MOLM-14, read-out: relative cell viability (Fig 6e), replicates, MOLM14, Con. 10 μM, fraction of 0 μM control
  viability at 10 µM: 3.59%
[4]; [11]
  viability at 0.000244141 μM: 80.4%
  viability at 0.015625 μM: 100%
  viability at 0.0625 μM: 89.1%
  viability at 1 μM: 91.6%
[4]; B-cells, Con. 0.00390625 μM, read-out: relative cell viability (Fig 6c), replicates
  viability at 0.00390625 μM: 96.8%
[4]; [12]
  viability at 0.000244141 μM: 101%
  viability at 0.015625 μM: 83.4%
  viability at 0.0625 μM: 82.3%
  viability at 1 μM: 83.3%

## Brusatol
[5]; experiment of Fig 3a
  killing: more than 90%
[5]; independent experiment of Fig 3b
  killing: approximately 50%
[6]
  binding of 51048 with PI3Kγ in the presence of competitor: reduced
[7]
  mRNA levels of AKT1, ATF3, PIK3CG, and PIK3C2B: downregulated
[8]
  mRNA levels of AKT1, ATF3, PIK3CG, and PIK3C2B: downregulated
[9]; LCL1, cell number 0, 100 nM
  Cell viability (luminescence): 0.8054 and 1.195
[9]; LCL1, cell number 625, 100 nM
  Cell viability (luminescence): 1.142 and 1.405
[9]; LCL1, cell number 1250, 100 nM
  Cell viability (luminescence): 2.424 and 2.078
[9]; LCL1, cell number 2500, 100 nM
  Cell viability (luminescence): 3.232 and 2.818
[9]; LCL1, cell number 5000, 100 nM
  Cell viability (luminescence): 3.613 and 2.736
[9]; LCL1, cell number 10000, 100 nM
  Cell viability (luminescence): 4.594 and 3.987
[10]; [13]
  Expr Other, upstream regulator ALDH1A2: -1.404
  Expr Other, upstream regulator ARRB2: -0.306
  Expr Other, upstream regulator CBX5: -1.126
  Expr Other, upstream regulator CD22: 2.89
  Expr Other, upstream regulator CDC73: -0.568
  Expr Other, upstream regulator CYLD: -1.473
  Expr Other, upstream regulator DICER1: 1.146
  Expr Other, upstream regulator DNAJB6: 0.673
  Expr Other, upstream regulator FKBP4: 0.61
  Expr Other, upstream regulator GMNN: -1.679
  Expr Other, upstream regulator GRN: 0.925
  Expr Other, upstream regulator IFNGR1: 0.304
  Expr Other, upstream regulator KMT2D: -0.912
  Expr Other, upstream regulator NONO: 1.295
  Expr Other, upstream regulator PAX8: 1.9
  Expr Other, upstream regulator PTPRJ: -1.699
  Expr Other, upstream regulator RARRES3: 2.648
  Expr Other, upstream regulator SOD2: 1.251
  Expr Other, upstream regulator UPF2: -0.435
  Expr Other, upstream regulator WDR5: 0.395
  Expr Other, upstream regulator ZC3H12A: -1.316
[10]; LCL1, 72 h
  CTNNA1 transcript (RNA-Seq): dramatically downregulated
  SLC22A1 transcript (RNA-Seq): highly upregulated
